In patent US20240190856A1, “MELANOCORTIN-4 RECEPTOR AGONIST” (LG CHEM, LTD., priority 2021, published 2024):
Structures can show the parent of a compound that is named as a salt.

How the values were obtained:
[1] = target: T1, MC4R (Homo sapiens, UniProt P32245); test: Binding affinity (125I-NDP-α-MSH displacement, membranes of HEK-293 cells expressing MC4R); set-up: expressed in transfected cells; host or cells: HEK-293 cells, membrane preparation; details: 0.02 nM 125I-NDP-α-MSH, 37° C. for two hours, pH 7.0
Text: Five subtypes of melanocortin receptor (MCR) in vivo are known, and it is known that MC4R, which is Subtype 4, is involved in energy metabolism and weight control. Since other MCR subtypes are involved in the regulation of various functions in vivo such as skin pigmentation, energy homeostasis, and exocrine functions, securing selectivity for MC4R of MC4R agonist compounds is very important in preventing possible side effects in the future. Therefore, the receptor binding abilities of MC4R agonists for each MCR subtype were measured.
After the CHO-K 1 cell line expressing human recombinant MC1R and the HEK-293 cell lines expressing MC3R, MC4R and MC5R were established, membranes were collected from each cell line. In a 96-well cell culture plate, 3 μg MC1R membrane and 0.04 nM ^125I-NDP-α-MSH per well were reacted at 37° C. for two hours. 3 μg MC3R and MC5R membrane and 0.035 nM ^125I-NDP-α-MSH were reacted at 37° C. for one hour, and […] MC4R membrane and 0.02 nM ^125I-NDP-α-MSH were reacted at 37° C. for two hours. At this time, 25 mM HEPES-KOH adsorption buffer (pH 7.0) containing MCR agonist diluted at each step concentration was added to each well and reacted. The reacted solution was transferred to a filter and washed with an adsorption buffer, and then radioactivity was measured. The value excluding the non-specific binding amount in the presence of 1 μM (MC1R) and 3 μM (MC3R, MC4R, MC5R) of NDP-α-MSH from each total binding amount was used as specific binding amounts of ^125I-NDP-α-MSH. The degree to which the ^125I-NDP-a-MSH specific binding was inhibited by the agonist diluted at each step concentration was measured. IC50 was expressed as the concentration of each agonist that inhibited specific binding of 50% of ^125I-NDP-α-MSH.
Tables 4-1 and 4-2 show the results of measuring the binding of melanocortin receptors of the compounds obtained by the above experiment in Ki (nM) units.
Target sequence in this assay (P32245 whole entry): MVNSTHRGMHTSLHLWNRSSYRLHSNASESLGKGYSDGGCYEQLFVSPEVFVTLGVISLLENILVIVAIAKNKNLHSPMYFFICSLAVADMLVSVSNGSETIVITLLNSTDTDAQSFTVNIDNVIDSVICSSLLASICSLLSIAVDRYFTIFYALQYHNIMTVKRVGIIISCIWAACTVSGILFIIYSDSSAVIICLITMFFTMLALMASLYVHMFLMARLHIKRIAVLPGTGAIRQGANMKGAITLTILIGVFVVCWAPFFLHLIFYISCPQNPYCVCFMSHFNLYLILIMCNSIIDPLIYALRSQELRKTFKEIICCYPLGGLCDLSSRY

[2] = target: T2, MC4R (melanocortin-4 receptor) (Homo sapiens, UniProt P32245); test: Luciferase assay (CRE-LUC, HEK MC4R-Luc cells); format: cell-based; details: 5 h incubation, concentration inducing 50% of each agonist's own maximum luminescence
T2 construct: expressed in transfected cells
T2 sequence (P32245 whole entry, species assumed): as the sequence (P32245 whole entry) above
Method: In order to measure the agonist ability against MC4R (melanocortin-4 receptor), a cell line that permanently expresses the luciferase gene (CRE-LUC) under the control of MC4R and CRE (cAMP response element) was established. After a mammalian cell expression vector (pCDNA3 (Neo)) (Invitrogen) containing the MC4R gene was prepared, human embryonic kidney (HEK) cell lines were transformed by using Lipofectamine 2000 (Invitrogen) together with a vector (pCRE-Luc)(Stratagen) expressing a luciferase gene (CRE-LUC) under the control of a cAMP response element (CRE). Transformed cell lines (HEK MC4R-Luc) were incubated in a 37° C. incubator in the presence of 5% CO2 for 24 hours by using Dulbecco's Modified Eagles Medium (DMEM) containing 10% Heat-Inactivated Fetal Bovine Serum (GIBCO/BRL). The cell lines were incubated for four days in the presence of Dulbecco's Modified Eagles Medium (DMEM) containing 10 ml of selection medium (10% Heat-Inactivated Fetal Bovine Serum (GIBCO/BRL), 100 unit/ml of penicillin (GIBCO/BRL), 100 unit/ml of streptomycin (GIBCO/BRL), 800 μg/ml of Geneticin (G418) (GIBCO/BRL). The process of removing cells killed by the selection medium by replacing the medium with 10 ml of a new selection medium was repeated three times, once every 4 days. Individual colonies formed by the finally selected and propagated clones were transferred under a microscope to a 24-well cell culture plate containing 1 ml of selection medium per well and incubated for 4 days. Forskolin (SIGMA) was treated to a final concentration of 10 μM, and then incubated for five hours in a 37° C. incubator in the presence of 5% CO2. Each well was treated with 50 μl of a Bright-Glo luciferase reagent (Promega) and left at room temperature for 15 minutes, and then the luminescence of each well was measured by using a luminometer (Victor).
HEK MC4R-Luc cells were added to each well of a 96-well luminometer cell culture plate (Costar) to a size of 2.5×10^4 cells in 100 μl of a culture medium and then incubated in a 37° C. incubator in the presence of 6% CO2 for 18 hours. […] Each well was treated with 50 μl of a Bright-Glo luciferase reagent (Promega) and left at room temperature for five minutes, and then the luminescence of each well was measured by using a luminometer (Victor). […] EC0.5 MSH is expressed as a concentration that induces 50% of the maximum amount of luminescence that can be induced by NDP-α-MSH, and EC50 is expressed as a concentration that induces 50% of the maximum amount of luminescence that can be induced by each agonist. The measurements were measured using statistical software (Prizm).

[3] = target: T1, MC4R; test: cAMP assay (cAMP Hunter Gs-coupled CHO-K1 cell line); format: cell-based; set-up: expressed in transfected cells; host or cells: CHO-K1 (cAMP Hunter Gs-coupled cell line); details: CHO-K1 cells overexpressing MC4R, 37° C. for 30 minutes
Text: The melanocortin receptor is a type of G-protein coupled receptor (GPCR), and the main role of G-protein is to activate secondary transducers to regulate cellular responses to many physiological stimuli through signal transduction. MC4R is a Gs-coupled receptor, and it is known that if MC4R interacts with an agonist, adenylate cyclase (AC) is activated to increase the concentration of cyclic AMP (cAMP), which is one of the secondary transducers in cells. Therefore, it is possible to evaluate the activity of melanocortin receptors by measuring the generation of cAMP signals.
After cAMP Hunter Gs-coupled cell lines (CHO-K1 cell line) in which each of MC1R, MC3R, MC4R and MC5R was overexpressed were established so that the increase in the cAMP level in cells due to agonist reaction was measurable, the cells were inoculated into each well of a white cell culture plate and incubated for 24 hours in a 37° C. incubator in the presence of 5% CO2. After the incubation, the medium was removed, and 15 μl of a 2:1 HBBS/10 mM HEPES:cAMP XS+Ab reagent was added. After 5 μl of the sample diluted 4 times with buffer was added, the vehicle concentration was set to 1%, and the MC4R agonist compound diluted at each step concentration was added, followed by reaction at 37° C. for 30 minutes. The activity (%) of each agonist compound is expressed as 100% ×(average RLU value of sample'average RLU value of vehicle control)/(average RLU value of max control−average RLU value of vehicle control), and the value was analyzed by CBIS data analysis suite (ChemInnovation, CA).
Target sequence in this assay (P32245 whole entry, species assumed): as the sequence (P32245 whole entry) above

## CC(C)(C)C(=O)N([C@H]1C[C@@H](C(=O)N2CCOCC2)N(C(=O)[C@@H]2CN(C(C)(C)C)C[C@H]2c2ccc(F)cc2F)C1)[C@H]1CC[C@@H](C)CC1 [Example 1, N-((3S,5S)-1-((3S,4R)-1-(tert-butyl)-4-(2,4-difluorophenyl)pyrrolidine-3-carbonyl)-5-(morpholine-4-carbonyl)pyrrolidin-3-yl)-N-((1s,4R)-4-methylcyclohexyl)pivalamide hydrochloride]
[1]; Table 4-1
  Ki: 74 nM
[2]
  EC50: 0.629 nM
[3]
  EC50: 58.9 nM

## CC(C)C(=O)N([C@H]1C[C@@H](C(=O)N2CCOCC2)N(C(=O)[C@@H]2CN(C(C)(C)C)C[C@H]2c2ccc(F)cc2F)C1)[C@H]1CC[C@@H](C)CC1 [Example 2, N-((3S,5S)-1-((3S,4R)-1-(tert-butyl)-4-(2,4-difluorophenyl)pyrrolidine-3-carbonyl)-5-(morpholine-4-carbonyl)pyrrolidin-3-yl)-N-((1s,4R)-4-methylcyclohexyl)isobutyramide hydrochloride]
[1]; Table 4-1
  Ki: 240 nM
[2]
  EC50: 2.47 nM
[3]
  EC50: 59.6 nM

## CC(C)C(=O)N([C@H]1C[C@@H](C(=O)N2CCOCC2)N(C(=O)[C@@H]2CN(C(C)(C)C)C[C@H]2c2ccc(Cl)cc2F)C1)[C@H]1CC[C@@H](C)CC1 [Example 3, N-((3S,5S)-1-((3S,4R)-1-(tert-butyl)-4-(4-chloro-2-fluorophenyl)pyrrolidine-3-carbonyl)-5-(morpholine-4-carbonyl)pyrrolidin-3-yl)-N-((1s,4R)-4-methylcyclohexyl)isobutyramide hydrochloride]
[1]; Table 4-2
  Ki: 86 nM
[2]
  EC50: 0.922 nM
[3]
  EC50: 49.6 nM

## CC(C)(C)C(=O)N([C@H]1C[C@@H](C(=O)N2CCOCC2)N(C(=O)[C@@H]2CN(C(C)(C)C)C[C@H]2c2ccc(Cl)cc2F)C1)[C@H]1CC[C@@H](C)CC1 [Example 4, N-((3S,5S)-1-((3S,4R)-1-(tert-butyl)-4-(4-chloro-2-fluorophenyl)pyrrolidine-3-carbonyl)-5-(morpholine-4-carbonyl)pyrrolidin-3-yl)-N-((1s,4R)-4-methylcyclohexyl)pivalamide hydrochloride]
[1]; Table 4-1
  Ki: 30 nM
[2]
  EC50: 0.555 nM
[3]
  EC50: 26.2 nM

## CC1(C)CCC(N(C(=O)C(C)(C)C)[C@H]2C[C@@H](C(=O)N3CCOCC3)N(C(=O)[C@@H]3CN(C(C)(C)C)C[C@H]3c3ccc(Cl)cc3)C2)CC1 [Example 6, N-((3S,5S)-1-((3S,4R)-1-(tert-butyl)-4-(4-chlorophenyl)pyrrolidine-3-carbonyl)-5-(morpholine-4-carbonyl)pyrrolidin-3-yl)-N-(4,4-dimethylcyclohexyl)pivalamide hydrochloride]
[1]; Table 4-2
  Ki: 32 nM
[2]
  EC50: 4.04 nM
[3]
  EC50: 51.4 nM
